Experimental data taken from ChEMBL document CHEMBL5226326, “Discovery of 1-Benzoyl 4-Phenoxypiperidines as Small-Molecule Inhibitors of the β-Catenin/B-Cell Lymphoma 9 Protein-Protein Interaction” (J Med Chem, 2021).

Assays:
[1] = Inhibition of full length beta-catenin E155A mutant/N-terminal biotinylated human BCL9 HD2 (350 to 375 residues) protein-protein interaction in human SW480 cells incubated for 1 hr by Alphascreen assay; type: cell-based
[2] = biological target: T1, Catenin beta-1/Cadherin-1 (Homo sapiens, UniProt P35222); assay: Inhibition of full length beta-catenin (1 to 686 residues) (unknown origin) expressed in Escherichia coli BL21 (DE3)/N-terminal biotinylated human E-cadherin (824 to 877 residues) protein-protein interaction incubated for 2 hr by fluorescence anisotropy binding assay
T1 sequence (P35222 whole entry): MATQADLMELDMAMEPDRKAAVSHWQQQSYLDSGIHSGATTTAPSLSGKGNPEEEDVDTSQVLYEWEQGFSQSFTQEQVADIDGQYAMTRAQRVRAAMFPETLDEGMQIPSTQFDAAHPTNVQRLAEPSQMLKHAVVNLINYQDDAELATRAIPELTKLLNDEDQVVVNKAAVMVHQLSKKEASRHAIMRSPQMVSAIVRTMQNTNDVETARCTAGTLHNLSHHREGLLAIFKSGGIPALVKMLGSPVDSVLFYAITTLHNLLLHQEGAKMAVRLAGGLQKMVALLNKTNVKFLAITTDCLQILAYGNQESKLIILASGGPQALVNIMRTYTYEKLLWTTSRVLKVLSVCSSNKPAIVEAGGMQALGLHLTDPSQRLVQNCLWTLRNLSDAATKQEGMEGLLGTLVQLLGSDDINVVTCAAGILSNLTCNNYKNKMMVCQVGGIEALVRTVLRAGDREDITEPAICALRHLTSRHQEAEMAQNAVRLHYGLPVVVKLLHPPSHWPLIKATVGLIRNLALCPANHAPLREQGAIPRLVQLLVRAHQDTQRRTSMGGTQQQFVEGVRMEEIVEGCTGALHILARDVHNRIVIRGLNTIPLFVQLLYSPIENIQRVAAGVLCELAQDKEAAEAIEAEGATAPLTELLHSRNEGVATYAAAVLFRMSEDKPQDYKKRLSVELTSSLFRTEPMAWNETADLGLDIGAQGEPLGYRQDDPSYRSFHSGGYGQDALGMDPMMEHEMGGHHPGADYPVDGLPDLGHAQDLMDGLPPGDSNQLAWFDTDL
T1 sequence (P12830 whole entry): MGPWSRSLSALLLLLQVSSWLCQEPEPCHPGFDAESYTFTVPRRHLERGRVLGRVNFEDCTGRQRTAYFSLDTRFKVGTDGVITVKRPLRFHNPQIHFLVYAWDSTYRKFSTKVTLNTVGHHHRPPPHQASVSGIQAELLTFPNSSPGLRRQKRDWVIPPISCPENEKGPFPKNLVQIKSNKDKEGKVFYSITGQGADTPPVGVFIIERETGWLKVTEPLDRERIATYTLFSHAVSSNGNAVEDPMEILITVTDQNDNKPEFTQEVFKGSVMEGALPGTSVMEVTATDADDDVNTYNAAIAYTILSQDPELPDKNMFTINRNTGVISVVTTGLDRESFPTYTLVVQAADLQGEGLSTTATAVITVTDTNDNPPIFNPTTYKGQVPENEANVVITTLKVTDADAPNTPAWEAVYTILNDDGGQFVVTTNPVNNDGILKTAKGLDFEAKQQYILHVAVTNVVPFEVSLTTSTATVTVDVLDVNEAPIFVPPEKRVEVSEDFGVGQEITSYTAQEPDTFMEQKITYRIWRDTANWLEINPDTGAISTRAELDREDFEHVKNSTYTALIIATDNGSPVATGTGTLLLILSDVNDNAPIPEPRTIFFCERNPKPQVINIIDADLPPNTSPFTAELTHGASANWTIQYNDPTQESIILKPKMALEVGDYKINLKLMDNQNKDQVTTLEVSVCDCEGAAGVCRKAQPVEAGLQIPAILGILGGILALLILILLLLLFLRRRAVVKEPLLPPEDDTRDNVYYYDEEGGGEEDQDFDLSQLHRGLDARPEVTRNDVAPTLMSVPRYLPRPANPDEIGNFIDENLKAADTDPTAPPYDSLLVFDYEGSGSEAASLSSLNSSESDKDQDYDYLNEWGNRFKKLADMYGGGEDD

[3] = Inhibition of Wnt/beta-catenin transactivation signalling in human HEK293 cells transfected with TOPFlash reporter gene incubated for 24 hrs by TOPFlash luciferase assay; type: cell-based; conditions: HEK293, 24 h
[4] = biological target: T1, Catenin beta-1/Cadherin-1; assay: Inhibition of full length beta-catenin (1 to 686 residues) (unknown origin) expressed in Escherichia coli BL21 (DE3)/N-terminal biotinylated human E-cadherin (824 to 877 residues) protein-protein interaction assessed as inhibition constant incubated for 2 hr by Alphascreen assay
[5] = Drug uptake in human MDA-MB-231 cells at 2 uM incubated at 37 degree C measured after 6 hrs by HPLC analysis; type: ADME, cell-based; conditions: mda-mb-231, 6 h

## CC(C)(C)C1CCC(c2cc(C(=O)N3CCC(Oc4cc(N5CCNCC5)ccc4C#N)CC3)ccc2O[C@H]2CCNC2)CC1.Cl.Cl (mixture of isomers; cis)
[1]
  Ki: 3.6 µM
[2]
  Kd: 67 µM
[3]
  IC50: 5.7 µM
[4]
  Ki: 19 µM
[5]
  Drug uptake: 88 µM
